# Laboratory results as given in patent publication EP0075029A1, “AGENT FOR TREATING CHRONIC OBLITERATIVE LUNG DISEASE” (priority 1981, dated 1982).
# Where a name gives a salt, the structure may show the parent alone.
# Columns and labels:
# [1] = tested on: blood-perfused trachea in situ; assay: Blood-perfused trachea in situ (Himori and Taira): tracheal blood flow and inside pressure of the trachea; type: in vivo; details: intraarterial injection, dogs
# From the text: The cervix of each dog was medisected to expose the pharynx and the upper part of the trachea.
# The blood was introduced from the femoral artery by a peristaltic pump, and a part of the blood stream was by-passed to the downstream of the femoral artery through a Starling's air resistance tube provided parallel to the vascular bed of the trachea, thereby performing the perfusion under a constant pressure. The pressure of the perfusion was kept a little higher than the mean aortic blood pressure.
# On the other hand, water was placed into the cuff of a tracheal tube equipped with a cuff, and the tube was inserted into the trachea. Then, the inside pressure of the cuff was measured by a pressure transducer to determine the inside pressure of the trachea as follows. Initially, water was placed in the cuff in such a manner that the static inside pressure of the trachea was about 40 cm H20. During the experiment, the tonus (the inside pressure of the trachea) of the tracheal smooth muscles in stationary phases was maintained by continuous intraarterial injections of 3 pg each of neostigmine into the vascular bed of the trachea at 30-minute intervals.
# As an index of the selectivity of the dilating activity for trachea, the ratio of the increase of the blood flow in the trachea to the decrease of the inside pressure of the trachea was determined.
# bronchi in situ = assay: animal or person; details: Canis lupus familiaris, iv, read-out: Percent inhibition
# Experimental: The experiment was carried out in accordance with the Konzett-R6essler's method [Konzett, H. and Roessler, R: Arch. Exp. Pathol.
# Six mongrel adult dogs were anesthetized with pentobarbital sodium (30 mg/kg). A tracheal cannula was inserted, and under artificial respiration, holes were incised in the right and left pleurae to equalize the pressure of the pleural cavity to the atmospheric pressure. The amount of air which overflowed by inspiration against a pressure of 10±1 cm H20 applied from the branch of the cannula was measured by a pneumotachograph.
Structure (SMILES),effect on blood flow in the trachea and inside pressure of the trachea [1],inhibition at 3 mg/kg (bronchi in situ) [%]
"CC(C)NCC(O)c1ccc(O)c(O)c1 (single isomer, unassigned; (-)) [isoproterenol, (-) isoproterenol hydrochloride]",increased the blood flow in the trachea and reduced the inside pressure of the trachea in a dose dependent manner,–
"Cn1c(=O)c2[nH]cnc2n(C)c1=O [Theophylline, theophylline]",increased the blood flow in the trachea and reduced the inside pressure of the trachea in a dose dependent manner,56
